Where “and” joins values, the source holds several entries; their conditions need not be identical. Equal values may be shown once.
System: MDA-MB-231 multicell spheroids, viability (%T/C)
Experiment: Anticancer human tumor MDA-MB-231 cell line growth inhibition [IpAb];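 note: viability read after seven days of drug exposure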;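 for viability, T/C: 100% = DMSO vehicle control viability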
Conditions: for viability, T/C: stronger effect = lower value
From the text: Combinatorial screen of targeted agents with ipatasertib and abemaciclib in multi-cell type tumor spheroids
A high-throughput screen of multi-cell type tumor spheroids was designed to identify active combinations of targeted small molecules and ipatasertib or abemaciclib. Complex spheroids include a stromal component modeled by human endothelial cells (HUVEC) and fibroblasts modeled by human mesenchymal stem cells (MSCs). The concentration ranges selected for each drug and investigational agent were based upon clinically achievable concentrations if the clinical Cmax of the agent was known.
Compounds. The drugs and investigational agents: ipatasertib (NSC767898), abemaciclib(NSC768073), selumetinib (NSC741078), trametinib (758246), adavosertib (NSC754352), everolimus (NSC733504), sapanisertib (NSC764658), vemurafenib (NSC761431), venetoclax (NSC766270), copanlisib (NSC809693), apelisib (NSC765974), palbociblib (NSC758247), vemurafenib (NSC761431), dabrafenib (NSC764134), ravoxertinib (NSC781343), BMS-387032 (NSC767048), sotorasib (NSC818433), talazoparib (NSC767125) and afursertib (NSC778305), were obtained from the National Cancer Institute (NCI) Developmental Therapeutics Program Chemical Repository. The FDA-approved anticancer drug set is available from the NCI Developmental Therapeutics Program. […] The stock solutions were prepared in dimethyl sulfoxide (DMSO, Sigma-Aldrich, St. Louis, MO, cat. D2650) at 800-fold the tested concentration and stored at -70 degrees C prior to their use. All drugs and investigational agents were tested over a range starting from a high concentration at or near the clinical Cmax and decreasing in half-log increments. If the clinical Cmax for an agent had not been determined, the highest concentration tested was 10 microM.
NCI60 Cell Culture. NCI60 cell lines were obtained from the NCI Developmental Therapeutics Program Tumor Repository. For each lot of cells, the Repository performed Applied Biosystems AmpFLSTR Identifiler testing with PCR amplification to confirm consistency with the published Identifier STR profile for each cell line. Cells were kept in continuous culture for no more than 20 passages. The optimal seeding densities for each of the cell lines at each time point assessed were determined prior to performing the concentration response studies. Briefly, the NCI60 human tumor lines were grown as monolayers in RPMI 1640 medium supplemented with 10% FBS and 2 mmol/L L-glutamine.
An additional 9 lines were from the NCI60 cell line panel including MDA-MB-231 breast carcinoma, MDA-MB-468 breast carcinoma, MCF7 breast carcinoma, Hs578T breast carcinoma, MALME-3M melanoma, SK-MEL-2 melanoma, SK-OV-3 ovarian carcinoma, DU-145 prostate carcinoma, PC-3 prostate carcinoma, all cell lines along with major genetic alterations are listed on Table 2. Pooled donor human umbilical vein endothelial cells (HUVEC, Lonza, cat. CC-2519) and human mesenchymal stem cells (hMSC, Lonza, cat. PT-2501) were purchased from Lonza (Walkersville, MD).
PDMR cell lines were grown in complete medium (DC medium): Dulbecco's modified Eagle's medium (DMEM)/F12 supplemented with 5% fetal bovine serum (FBS), 2 mM L-glutamine, 100 U/mL penicillin and 100 µg/ml streptomycin, 0.4 µg/ml hydrocortisone, 10 ng/ml epidermal growth factor (EGF) recombinant human protein, 24 µg/mL adenine, and 0.1 mg/mL primocin. During culture from frozen stock vials, PDMR cells were cultured in the same medium containing 10 µM Y-27632 (see Table 3). The PDCs were cultured in complete DMEM/F12 media without 10 microM Y-27632 dihydrochloride for at least two passages prior to the screen. The pooled donor HUVEC and hMSC were cultured in endothelial cell growth medium 2 (PromoCell, Heidelberg, Germany, cat. C-22011) and mesenchymal stem cell growth medium 2 (PromoCell, cat. C-28009), respectively. For all experiments, HUVEC and hMSC were used at passages </=5.
[…]

[1] = curve of first compound, second compound 0.1 µM
[2] = curve of first compound, second compound 0.316 µM
[3] = curve of first compound, second compound 1 µM
[4] = second compound 0.1 µM, first compound 0.0316 µM
[5] = second compound 0.1 µM, first compound 0.1 µM
[6] = second compound 0.1 µM, first compound 0.316 µM
[7] = second compound 0.1 µM, first compound 1 µM
[8] = second compound 0.1 µM, first compound 3.16 µM
[9] = second compound 0.1 µM, first compound 10 µM
[10] = second compound 0.316 µM, first compound 0.0316 µM
[11] = second compound 0.316 µM, first compound 0.1 µM
[12] = second compound 0.316 µM, first compound 0.316 µM
[13] = second compound 0.316 µM, first compound 1 µM
[14] = second compound 0.316 µM, first compound 3.16 µM
[15] = second compound 0.316 µM, first compound 10 µM
[16] = second compound 1 µM, first compound 0.0316 µM
[17] = second compound 1 µM, first compound 0.1 µM
[18] = second compound 1 µM, first compound 0.316 µM
[19] = second compound 1 µM, first compound 1 µM
[20] = second compound 1 µM, first compound 3.16 µM
[21] = second compound 1 µM, first compound 10 µM
[22] = curve of first compound, second compound 3.16 µM
[23] = curve of first compound, second compound 10 µM

`Cn1ncc(Cl)c1-c1cc(C(=O)NC(CN)Cc2cccc(F)c2)sc1Cl` (configuration not stated) + CCN1CCN(Cc2ccc(Nc3ncc(F)c(-c4cc(F)c5nc(C)n(C(C)C)c5c4)n3)nc2)CC1 was tested, and the IC50 (curve of first compound, second compound 0.01 µM) was 864 nM, the IC50 (curve of first compound, second compound 0.0316 µM) was 378 nM and the IC50 [1] was 76.6 nM. For the same molecule, the IC50 [2] was less than 31.6 nM, the IC50 [3] was less than 31.6 nM and the viability, T/C (second compound 0.01 µM, first compound 0.0316 µM) was 87.3%. The viability, T/C (second compound 0.01 µM, first compound 0.1 µM) was 77.6%, the viability, T/C (second compound 0.01 µM, first compound 0.316 µM) was 66.7% and the viability, T/C (second compound 0.01 µM, first compound 1 µM) was 45.7%. The viability, T/C (second compound 0.01 µM, first compound 3.16 µM) was 27.5%, the viability, T/C (second compound 0.01 µM, first compound 10 µM) was 0.12% and the viability, T/C (second compound 0.0316 µM, first compound 0.0316 µM) was 73.4%. The viability, T/C (second compound 0.0316 µM, first compound 0.1 µM) was 64.8%, the viability, T/C (second compound 0.0316 µM, first compound 0.316 µM) was 51.9% and the viability, T/C (second compound 0.0316 µM, first compound 1 µM) was 36.4%. For the same molecule, the viability, T/C (second compound 0.0316 µM, first compound 3.16 µM) was 23%, the viability, T/C (second compound 0.0316 µM, first compound 10 µM) was 0.11% and the viability, T/C [4] was 52.6%. The viability, T/C [5] was 52%, the viability, T/C [6] was 40% and the viability, T/C [7] was 30.2%. It also gave a viability, T/C [8] of 20.4%, a viability, T/C [9] of 0.87% and a viability, T/C [10] of 43.4%. The viability, T/C [11] was 42.7%, the viability, T/C [12] was 32.9% and the viability, T/C [13] was 30.5%. The viability, T/C [14] was 26%, the viability, T/C [15] was 0.53% and the viability, T/C [16] was 44.2%. It also gave a viability, T/C [17] of 46.3%, a viability, T/C [18] of 43.2% and a viability, T/C [19] of 38.7%. The viability, T/C [20] was 43.6% and the viability, T/C [21] was 0.79%.

In the case of `Cc1nc(NC(=O)N2CCCC2C(N)=O)sc1-c1ccnc(C(C)(C)C(F)(F)F)c1` (configuration not stated), the viability, T/C (compound 0.0316 µM) is reported as 92.2% and 88.6%, the viability, T/C (compound 0.1 µM) is reported as 74.9% and 72.1% and the viability, T/C (compound 0.316 µM) is reported as 68.2% and 66%. The viability, T/C (compound 1 µM) was 65.7% and 73.6%, the viability, T/C (compound 3.16 µM) was 66.8% and 71.2% and the viability, T/C (compound 10 µM) was 62.7% and 60.5%. The IC50 (curve of compound) was greater than 10000 nM.

In the case of `Cc1nc(NC(=O)N2CCCC2C(N)=O)sc1-c1ccnc(C(C)(C)C(F)(F)F)c1` (configuration not stated) + CC(C)NCC(C(=O)N1CCN(c2ncnc3c2C(C)CC3O)CC1)c1ccc(Cl)cc1, the IC50 [1] is reported as greater than 10000 nM, the IC50 [2] is reported as greater than 10000 nM and the IC50 [3] is reported as greater than 10000 nM. For the same molecule, the IC50 [22] was less than 31.6 nM, the IC50 [23] was less than 31.6 nM and the viability, T/C [4] was 84.1%. The viability, T/C [5] was 71.3%, the viability, T/C [6] was 64.7% and the viability, T/C [7] was 71.8%. It also gave a viability, T/C [8] of 71.4%, a viability, T/C [9] of 62.5% and a viability, T/C [10] of 74.8%. For the same molecule, the viability, T/C [11] was 63.7%, the viability, T/C [12] was 58.3% and the viability, T/C [13] was 59.9%. For the same molecule, the viability, T/C [14] was 64.8%, the viability, T/C [15] was 60.8% and the viability, T/C [16] was 63.1%. For the same molecule, the viability, T/C [17] was 58.7%, the viability, T/C [18] was 55.3% and the viability, T/C [19] was 55.3%. It also gave a viability, T/C [20] of 58%, a viability, T/C [21] of 55.8% and a viability, T/C (second compound 3.16 µM, first compound 0.0316 µM) of 50.7%. The viability, T/C (second compound 3.16 µM, first compound 0.1 µM) was 45.8%, the viability, T/C (second compound 3.16 µM, first compound 0.316 µM) was 41.4% and the viability, T/C (second compound 3.16 µM, first compound 1 µM) was 46%. The viability, T/C (second compound 3.16 µM, first compound 3.16 µM) was 46.1%, the viability, T/C (second compound 3.16 µM, first compound 10 µM) was 42.6% and the viability, T/C (second compound 10 µM, first compound 0.0316 µM) was 35.2%. It also gave a viability, T/C (second compound 10 µM, first compound 0.1 µM) of 33.1%, a viability, T/C (second compound 10 µM, first compound 0.316 µM) of 31.6% and a viability, T/C (second compound 10 µM, first compound 1 µM) of 33.1%. It also gave a viability, T/C (second compound 10 µM, first compound 3.16 µM) of 37.8% and a viability, T/C (second compound 10 µM, first compound 10 µM) of 32.8%.

In the case of `CC(C)(C)c1cnc(CSc2cnc(NC(=O)C3CCNCC3)s2)o1` + CC(C)NCC(C(=O)N1CCN(c2ncnc3c2C(C)CC3O)CC1)c1ccc(Cl)cc1, the IC50 [1] is reported as 171 nM, the IC50 [2] is reported as 152 nM and the IC50 [3] is reported as 140 nM. For the same molecule, the IC50 [22] was 109 nM, the IC50 [23] was less than 9.49 nM and the viability, T/C (second compound 0.1 µM, first compound 0.00949 µM) was 110%. For the same molecule, the viability, T/C (second compound 0.1 µM, first compound 0.03 µM) was 115%, the viability, T/C (second compound 0.1 µM, first compound 0.0949 µM) was 101% and the viability, T/C (second compound 0.1 µM, first compound 0.3 µM) was 1.85%. It also gave a viability, T/C (second compound 0.1 µM, first compound 0.949 µM) of 1.02%, a viability, T/C (second compound 0.1 µM, first compound 3 µM) of 1.06% and a viability, T/C (second compound 0.316 µM, first compound 0.00949 µM) of 94.5%. The viability, T/C (second compound 0.316 µM, first compound 0.03 µM) was 98.8%, the viability, T/C (second compound 0.316 µM, first compound 0.0949 µM) was 83.5% and the viability, T/C (second compound 0.316 µM, first compound 0.3 µM) was 1.35%. It also gave a viability, T/C (second compound 0.316 µM, first compound 0.949 µM) of 0.87%, a viability, T/C (second compound 0.316 µM, first compound 3 µM) of 0.98% and a viability, T/C (second compound 1 µM, first compound 0.00949 µM) of 79.2%. The viability, T/C (second compound 1 µM, first compound 0.03 µM) was 84.8%, the viability, T/C (second compound 1 µM, first compound 0.0949 µM) was 74.4% and the viability, T/C (second compound 1 µM, first compound 0.3 µM) was 2.5%. The viability, T/C (second compound 1 µM, first compound 0.949 µM) was 0.85%, the viability, T/C (second compound 1 µM, first compound 3 µM) was 0.86% and the viability, T/C (second compound 3.16 µM, first compound 0.00949 µM) was 61.1%. For the same molecule, the viability, T/C (second compound 3.16 µM, first compound 0.03 µM) was 61.7%, the viability, T/C (second compound 3.16 µM, first compound 0.0949 µM) was 56.5% and the viability, T/C (second compound 3.16 µM, first compound 0.3 µM) was 1.57%. For the same molecule, the viability, T/C (second compound 3.16 µM, first compound 0.949 µM) was 0.65%, the viability, T/C (second compound 3.16 µM, first compound 3 µM) was 0.78% and the viability, T/C (second compound 10 µM, first compound 0.00949 µM) was 42.1%. The viability, T/C (second compound 10 µM, first compound 0.03 µM) was 43.8%, the viability, T/C (second compound 10 µM, first compound 0.0949 µM) was 35.1% and the viability, T/C (second compound 10 µM, first compound 0.3 µM) was 0.95%. For the same molecule, the viability, T/C (second compound 10 µM, first compound 0.949 µM) was 0.79% and the viability, T/C (second compound 10 µM, first compound 3 µM) was 0.8%.
